ChEMBL document CHEMBL1150089, “Sodwanones G, H, and I, new cytotoxic triterpenes from a marine sponge” (J Nat Prod, 1995)

Assays:
Type in all cases: functional, cell-based
P388 = experiment: Cytotoxicity against mouse P388 cells after 3 days; details: P388, 72 h
HT-29 = experiment: Cytotoxicity against human HT-29 cells after 3 days; details: HT-29, 72 h
A549 = experiment: Cytotoxicity against human A549 cells after 3 days; details: A549, 72 h
SK-MEL-28 = experiment: Cytotoxicity against human SK-MEL-28 cells after 3 days; details: SK-MEL-28, 72 h

SMILES | IC50 (P388) [µM] | IC50 (HT-29) [µM] | IC50 (A549) [µM] | IC50 (SK-MEL-28) [µM]
CC1=C(CC[C@@H]2[C@@]3(CC[C@@H]4OC(C)(C)C(=O)CC[C@]42C)CO3)[C@@]2(C)CCC(=O)C(C)(C)C2=C(O)C1=O [SODWANONE G] | 2 | 2 | 0.2 | 2
CC(C)C(=O)CC[C@@]1(C)[C@H]2CC[C@H](C)[C@]1(CC[C@@]1(C)[C@@H](C)CC[C@@H]3OC(C)(C)[C@]4(O)CC[C@@]31O4)O2 [SODWANONE I] | 20 | 20 | 20 | 20
CC1=C(CC[C@@H]2[C@H](C)CC[C@@H]3OC(C)(C)C(=O)CC[C@]32C)[C@@]2(C)CC[C@@H](O)C(C)(C)[C@@H]2CC1=O [SODWANONE H] | 10.5 | 10.5 | 0.02 | 10.5
